Among the data in ChEMBL document CHEMBL5728169, “Compounds and methods for inhibiting CYP26 enzymes” (2020) are IC50 values, retold here.

Data set [1] deals with T1, Cytochrome P450 26A1 (Homo sapiens, UniProt O43174).
T1 sequence (O43174 whole entry): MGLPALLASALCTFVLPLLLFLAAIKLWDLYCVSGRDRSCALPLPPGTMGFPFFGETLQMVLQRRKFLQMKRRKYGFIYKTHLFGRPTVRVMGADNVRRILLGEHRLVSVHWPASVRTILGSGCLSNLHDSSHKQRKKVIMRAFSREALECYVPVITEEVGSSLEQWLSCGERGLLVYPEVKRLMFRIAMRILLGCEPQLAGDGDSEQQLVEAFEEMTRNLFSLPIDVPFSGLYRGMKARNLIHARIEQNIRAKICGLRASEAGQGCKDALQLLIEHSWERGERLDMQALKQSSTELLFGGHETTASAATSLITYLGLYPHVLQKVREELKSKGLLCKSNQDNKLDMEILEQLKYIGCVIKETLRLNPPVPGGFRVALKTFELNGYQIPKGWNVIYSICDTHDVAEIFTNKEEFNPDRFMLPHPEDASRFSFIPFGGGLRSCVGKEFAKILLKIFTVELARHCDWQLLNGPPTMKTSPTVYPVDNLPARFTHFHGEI
Kind of data set: (§1) Cell-Based Inhibitor Assay: CYP26A1 or CYP26B1 stably transfected HeLa cells were maintained in Minimum Essential Medium (MEM) containing 10% fetal bovine serum (FBS) and 100 μg/mL hygromycin. Exponentially growing cells were harvested by incubation in trypsin. Cells were then collected and re-plated in 48-well culture plates at 5×10^5 cells in 0.2 mL of culture medium containing 0.05 μCi [3H]-RA in the presence or absence of increasing concentrations of a test compound. The test compounds were diluted in dimethyl sulfoxide (DMSO) and then added in duplicate to wells at 0.01, 0.1, 1, 10 and 100 μM final concentration. […] Cells were incubated for 3 hours at 37° C. Retinoids were then extracted using the procedure of Bligh, et al., (1959), Canadian Journal of Biochemistry 37, 911-917, which was modified by using dichloromethane instead of chloroform. Each sample's water soluble radioactivity level was quantified using a β-scintillation counter (using Ecolume scintillation fluid, available from MP Biomedicals of Solon, Ohio, USA).

Data set [2] deals with T2, Cytochrome P450 26B1 (Homo sapiens, UniProt Q9NR63).
T2 sequence (Q9NR63 whole entry): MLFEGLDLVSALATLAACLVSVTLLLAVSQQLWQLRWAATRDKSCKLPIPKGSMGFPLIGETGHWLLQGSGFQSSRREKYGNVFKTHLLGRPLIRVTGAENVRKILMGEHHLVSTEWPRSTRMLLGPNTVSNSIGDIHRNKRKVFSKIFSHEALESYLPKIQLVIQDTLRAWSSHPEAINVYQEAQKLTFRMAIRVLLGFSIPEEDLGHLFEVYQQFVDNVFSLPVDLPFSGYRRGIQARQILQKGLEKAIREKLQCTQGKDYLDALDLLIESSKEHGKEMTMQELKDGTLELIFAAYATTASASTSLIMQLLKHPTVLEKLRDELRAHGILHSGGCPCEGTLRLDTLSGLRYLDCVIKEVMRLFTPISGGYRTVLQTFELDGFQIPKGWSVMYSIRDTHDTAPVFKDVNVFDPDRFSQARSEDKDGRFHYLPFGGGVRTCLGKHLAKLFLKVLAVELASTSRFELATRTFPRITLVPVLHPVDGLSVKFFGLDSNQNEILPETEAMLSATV
Described as §1.

`Cc1cc2c(cc1S(=O)(=O)Nc1ccc(CC(=O)O)cc1)C(C)(C)CCC2(C)C`: the IC50 was 0.47 µM in data set [1] and over 1000 µM in data set [2].

For the compound `Cc1ccc(NS(=O)(=O)c2cc(C)c3c(c2)C(C)(C)CC(C)(C)O3)cc1`, the IC50 came to 1.9 µM in data set [1] and 21.8 µM in data set [2].

For orientation: IC50 means the concentration needed to halve the response being measured.
